Legend:
Assay type in all cases: cell-based
human TLR7 = molecular target: T1, human TLR7 (Homo sapiens, UniProt Q9NYK1); assay: TLR7 inhibition reporter assay (HEK-Blue cells, SEAP reporter, gardiquimod stimulation); conditions: HEK-Blue cells overexpressing human TLR7, SEAP reporter, gardiquimod 7.5 μM; read-out: TLR7 IC50
T1 construct: host or cells: HEK-Blue cells
T1 sequence (Q9NYK1 27-1049): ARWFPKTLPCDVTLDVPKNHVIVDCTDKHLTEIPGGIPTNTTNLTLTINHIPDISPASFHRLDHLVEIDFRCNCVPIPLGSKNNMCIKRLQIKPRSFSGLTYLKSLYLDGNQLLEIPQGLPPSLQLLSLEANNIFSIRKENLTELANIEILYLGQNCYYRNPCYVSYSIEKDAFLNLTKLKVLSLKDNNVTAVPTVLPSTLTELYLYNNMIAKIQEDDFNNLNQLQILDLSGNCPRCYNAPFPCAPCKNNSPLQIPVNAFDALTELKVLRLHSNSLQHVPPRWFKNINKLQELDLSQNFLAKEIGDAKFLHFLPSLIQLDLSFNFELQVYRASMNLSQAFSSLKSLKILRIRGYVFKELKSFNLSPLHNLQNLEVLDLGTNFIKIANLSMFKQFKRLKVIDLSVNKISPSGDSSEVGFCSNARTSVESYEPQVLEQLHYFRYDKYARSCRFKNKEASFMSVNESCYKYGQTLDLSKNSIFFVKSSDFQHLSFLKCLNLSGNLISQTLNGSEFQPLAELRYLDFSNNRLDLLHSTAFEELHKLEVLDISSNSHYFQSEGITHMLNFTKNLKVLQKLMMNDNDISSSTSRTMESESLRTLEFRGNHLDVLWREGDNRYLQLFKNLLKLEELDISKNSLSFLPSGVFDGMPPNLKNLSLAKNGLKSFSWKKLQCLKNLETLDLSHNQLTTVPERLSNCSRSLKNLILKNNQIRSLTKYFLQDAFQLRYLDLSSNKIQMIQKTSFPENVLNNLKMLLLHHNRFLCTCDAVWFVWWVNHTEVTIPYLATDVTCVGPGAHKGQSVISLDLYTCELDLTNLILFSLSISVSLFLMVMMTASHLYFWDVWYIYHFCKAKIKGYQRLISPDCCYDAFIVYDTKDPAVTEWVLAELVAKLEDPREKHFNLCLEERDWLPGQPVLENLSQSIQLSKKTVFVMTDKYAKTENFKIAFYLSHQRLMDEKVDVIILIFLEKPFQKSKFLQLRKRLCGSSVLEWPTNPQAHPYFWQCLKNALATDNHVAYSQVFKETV
Procedure, shortened: (§1)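 Agonists used: gardiquimod 7.5 μM (TLR7), R848 15.9 μM (TLR8), ODN2006 5 nM (TLR9), added after 30 min room-temperature compound pre-treatment (0.05 nM–50 μM) of receptor-overexpressing HEK-Blue cells. SEAP reporter (NF-κB/AP-1 driven) read after 22 h at 37 °C; inhibition scaled between agonist+DMSO and reference-inhibitor wells.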

human TLR8 = molecular target: T2, human TLR8 (Homo sapiens, UniProt Q9NR97); assay: TLR8 inhibition reporter assay (HEK-Blue cells, SEAP reporter, R848 stimulation); conditions: HEK-Blue cells overexpressing human TLR8, SEAP reporter, R848 15.9 μM; read-out: TLR8 IC50
T2 construct: host or cells: HEK-Blue cells
T2 sequence (Q9NR97 27-1041): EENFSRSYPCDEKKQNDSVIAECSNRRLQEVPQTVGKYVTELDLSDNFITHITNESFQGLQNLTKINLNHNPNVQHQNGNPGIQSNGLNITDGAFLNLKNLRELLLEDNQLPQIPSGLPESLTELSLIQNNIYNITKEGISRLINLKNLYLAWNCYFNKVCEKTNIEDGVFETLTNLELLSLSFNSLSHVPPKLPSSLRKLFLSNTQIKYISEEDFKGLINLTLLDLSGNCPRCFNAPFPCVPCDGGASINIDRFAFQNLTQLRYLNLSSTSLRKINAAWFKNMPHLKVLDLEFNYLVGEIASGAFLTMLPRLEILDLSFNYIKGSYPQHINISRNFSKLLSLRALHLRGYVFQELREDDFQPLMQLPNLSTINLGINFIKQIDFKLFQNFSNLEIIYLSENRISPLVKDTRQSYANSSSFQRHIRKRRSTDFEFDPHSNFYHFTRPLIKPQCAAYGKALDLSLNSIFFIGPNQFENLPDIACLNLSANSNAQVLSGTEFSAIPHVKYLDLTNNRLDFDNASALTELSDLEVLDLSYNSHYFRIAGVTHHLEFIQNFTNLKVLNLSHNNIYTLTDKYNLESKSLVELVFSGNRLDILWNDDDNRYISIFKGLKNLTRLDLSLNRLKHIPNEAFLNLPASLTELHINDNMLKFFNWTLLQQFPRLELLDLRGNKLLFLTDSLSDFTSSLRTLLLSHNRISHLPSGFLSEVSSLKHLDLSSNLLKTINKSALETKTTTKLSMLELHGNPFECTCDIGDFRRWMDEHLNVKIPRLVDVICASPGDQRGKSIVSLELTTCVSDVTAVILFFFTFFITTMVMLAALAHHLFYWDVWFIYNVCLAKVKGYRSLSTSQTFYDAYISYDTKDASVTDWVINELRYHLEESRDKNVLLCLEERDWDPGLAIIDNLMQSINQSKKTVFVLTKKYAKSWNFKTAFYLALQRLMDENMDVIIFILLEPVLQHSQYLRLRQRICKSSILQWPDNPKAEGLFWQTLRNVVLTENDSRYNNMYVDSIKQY
Procedure, shortened: as §1

human TLR9 = molecular target: T3, human TLR9 (Homo sapiens, UniProt Q9NR96); assay: TLR9 inhibition reporter assay (HEK-Blue cells, SEAP reporter, ODN2006 stimulation); conditions: HEK-Blue cells overexpressing human TLR9, SEAP reporter, ODN2006 5 nM
T3 construct: host or cells: HEK-Blue cells
T3 sequence (Q9NR96 26-1032): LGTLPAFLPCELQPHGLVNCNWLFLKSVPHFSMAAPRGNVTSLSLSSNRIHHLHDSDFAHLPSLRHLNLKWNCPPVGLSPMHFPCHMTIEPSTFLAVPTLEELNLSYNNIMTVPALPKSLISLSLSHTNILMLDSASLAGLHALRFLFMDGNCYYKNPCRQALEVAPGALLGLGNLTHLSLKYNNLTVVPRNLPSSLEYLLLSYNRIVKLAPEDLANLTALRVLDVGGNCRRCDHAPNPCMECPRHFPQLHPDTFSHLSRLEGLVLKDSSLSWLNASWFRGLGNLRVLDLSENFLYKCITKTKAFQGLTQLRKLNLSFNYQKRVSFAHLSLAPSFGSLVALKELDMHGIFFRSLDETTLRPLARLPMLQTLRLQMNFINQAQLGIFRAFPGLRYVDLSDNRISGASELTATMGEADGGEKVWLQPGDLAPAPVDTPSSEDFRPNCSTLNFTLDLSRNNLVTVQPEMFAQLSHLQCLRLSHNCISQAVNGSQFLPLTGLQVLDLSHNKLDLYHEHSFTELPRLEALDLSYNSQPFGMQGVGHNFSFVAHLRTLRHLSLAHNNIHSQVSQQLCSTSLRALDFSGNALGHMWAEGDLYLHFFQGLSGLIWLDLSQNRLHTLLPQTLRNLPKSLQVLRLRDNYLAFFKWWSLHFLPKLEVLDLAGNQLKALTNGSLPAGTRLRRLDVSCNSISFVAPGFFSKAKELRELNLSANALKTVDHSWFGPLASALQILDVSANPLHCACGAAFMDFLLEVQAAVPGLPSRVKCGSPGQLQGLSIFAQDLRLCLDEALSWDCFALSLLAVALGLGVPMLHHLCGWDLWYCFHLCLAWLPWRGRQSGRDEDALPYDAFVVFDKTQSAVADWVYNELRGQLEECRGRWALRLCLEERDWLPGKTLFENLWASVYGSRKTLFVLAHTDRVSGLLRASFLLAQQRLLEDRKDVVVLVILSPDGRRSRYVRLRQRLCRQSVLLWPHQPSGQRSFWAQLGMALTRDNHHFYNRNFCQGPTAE
Procedure, shortened: as §1

IC50 (human TLR7) [nM] | IC50 (human TLR8) [nM] | IC50 (human TLR9) [nM] | SMILES
4.01 | 8.12 | 6720 | COc1cc(-c2[nH]c3sc(C4CCC(NC[C@@H](F)C(C)(C)O)CC4)nc3c2C(C)C)cn2ncnc12 (single isomer, unassigned) [Example 91]
0.31 | 2.34 | 4110 | COc1cc(-c2[nH]c3sc(C4CCC(N)CC4)nc3c2C(C)C)cn2ncnc12 (single isomer, unassigned) [Example 92, 4-(6-isopropyl-5-(8-methoxy-[1,2,4]triazolo[1,5-a]pyridin-6-yl)-4H-pyrrolo[3,2-d]thiazol-2-yl)cyclohexan-1-amine]
1.89 | 15.6 | 12000 | COc1cc(-c2[nH]c3sc(C4CCC(N)CC4)nc3c2C(C)C)cn2ncnc12 (single isomer, unassigned) [Example 93, 4-(6-isopropyl-5-(8-methoxy-[1,2,4]triazolo[1,5-a]pyridin-6-yl)-4H-pyrrolo[3,2-d]thiazol-2-yl)cyclohexan-1-amine]
1.94 | 3.14 | 40700 | CCC1(NC2CCC(c3nc4c(C(C)C)c(-c5cc(OC)c6ncnn6c5)[nH]c4s3)CC2)COC1 (single isomer, unassigned) [Example 94, 3-ethyl-N-(4-(6-isopropyl-5-(8-methoxy-[1,2,4]triazolo[1,5-a]pyridin-6-yl)-4H-pyrrolo[3,2-d]thiazol-2-yl)cyclohexyl)oxetan-3-amine]

Continued, compound first:

SMILES | IC50 (human TLR7) [nM] | IC50 (human TLR8) [nM] | IC50 (human TLR9) [nM]
COc1cc(-c2[nH]c3sc(C4CCC(N5CCS(=O)(=O)CC5)CC4)nc3c2C(C)C)cn2ncnc12 (single isomer, unassigned) [Example 83, 4-(4-(6-isopropyl-5-(8-methoxy-[1,2,4]triazolo[1,5-a]pyridin-6-yl)-4H-pyrrolo[3,2-d]thiazol-2-yl)cyclohexyl)thiomorpholine 1,1-dioxide] | 6.33 | 238 | > 50000
COc1cc(-c2[nH]c3sc(C4CCC(NCC(C)(C)O)CC4)nc3c2C(C)C)cn2ncnc12 (single isomer, unassigned) [Example 84, 1-((4-(6-isopropyl-5-(8-methoxy-[1,2,4]triazolo[1,5-a]pyridin-6-yl)-4H-pyrrolo[3,2-d]thiazol-2-yl)cyclohexyl)amino)-2-methylpropan-2-ol] | 0.9 | 0.84 | 9110
COc1cc(-c2[nH]c3sc(C4CCC(NCC(C)(C)O)CC4)nc3c2C(C)C)cn2ncnc12 (single isomer, unassigned) [Example 85, 1-((4-(6-isopropyl-5-(8-methoxy-[1,2,4]triazolo[1,5-a]pyridin-6-yl)-4H-pyrrolo[3,2-d]thiazol-2-yl)cyclohexyl)amino)-2-methylpropan-2-ol] | 2.66 | 17.5 | 6910
COc1cc(-c2[nH]c3sc(C4CCC(NCC(C)(C)OC)CC4)nc3c2C(C)C)cn2ncnc12 (single isomer, unassigned) [Example 86, 4-(6-isopropyl-5-(8-methoxy-[1,2,4]triazolo[1,5-a]pyridin-6-yl)-4H-pyrrolo[3,2-d]thiazol-2-yl)-N-(2-methoxy-2-methylpropyl)cyclohexan-1-amine] | 1.34 | 0.7 | 6420
COc1cc(-c2[nH]c3sc(C4CCC(NCC(C)(C)OC)CC4)nc3c2C(C)C)cn2ncnc12 (single isomer, unassigned) [Example 87, 4-(6-isopropyl-5-(8-methoxy-[1,2,4]triazolo[1,5-a]pyridin-6-yl)-4H-pyrrolo[3,2-d]thiazol-2-yl)-N-(2-methoxy-2-methylpropyl)cyclohexan-1-amine] | 1.73 | 11.8 | 7790
COc1cc(-c2[nH]c3sc(C4CCC(N(C)C(C)C)CC4)nc3c2C(C)C)cn2ncnc12 (single isomer, unassigned) [Example 88, N-isopropyl-4-(6-isopropyl-5-(8-methoxy-[1,2,4]triazolo[1,5-a]pyridin-6-yl)-4H-pyrrolo[3,2-d]thiazol-2-yl)-N-methylcyclohexan-1-amine] | 0.81 | 1.84 | 4450
COc1cc(-c2[nH]c3sc(C4CCC(N(C)C(C)C)CC4)nc3c2C(C)C)cn2ncnc12 (single isomer, unassigned) [Example 89, N-isopropyl-4-(6-isopropyl-5-(8-methoxy-[1,2,4]triazolo[1,5-a]pyridin-6-yl)-4H-pyrrolo[3,2-d]thiazol-2-yl)-N-methylcyclohexan-1-amine] | 1.48 | 18.9 | 4100
COc1cc(-c2[nH]c3sc(C4CCC(NC[C@@H](F)C(C)(C)O)CC4)nc3c2C(C)C)cn2ncnc12 (single isomer, unassigned) [Example 90] | 0.8 | 1.13 | 11100

From US20230139171A1 (SITA Information Networking Computing UK Limited, priority 2019, published 2023)
